Non-standard residues stand in square brackets, D forms with d. Residues, ends and D or L forms follow the SMILES beside them. *: point of attachment. X1 = N=C(N)NCCCCCCCCCCC(=O)*; X2 = N=C(N)NCCCCCCC(=O)*; Dab = NCC[C@H](N)C(=O)O
Columns and labels:
[1] = biological target: Neuropilin-1 (Rattus norvegicus) (UniProt Q9QWJ9); experiment: Inhibition of biotinylated VEGF-A165 binding to rat NRP1/FC chimera at 0.3 uM after 40 mins by ELISA relative to control
Neuropilin-1 [2] = biological target: Neuropilin-1 (Rattus norvegicus, UniProt Q9QWJ9); experiment: Inhibition of biotinylated VEGF-A165 binding to rat NRP1/FC chimera after 40 mins by ELISA
[3] = biological target: Neuropilin-1 (Rattus norvegicus) (UniProt Q9QWJ9); experiment: Inhibition of biotinylated VEGF-A165 binding to rat NRP1/FC chimera at 1 uM after 40 mins by ELISA relative to control
[4] = Half life in human plasma at 0.9 umol/ml by LC-MS analysis; assay type: ADME, cell-free
Neuropilin-1 [5] = biological target: Neuropilin-1 (Homo sapiens, UniProt O14786); experiment: Inhibition of biotinylated VEGF165 binding to NRP1 (unknown origin) by ELISA
Neuropilin-1 (Homo sapiens, UniProt O14786), sequence (O14786 whole entry): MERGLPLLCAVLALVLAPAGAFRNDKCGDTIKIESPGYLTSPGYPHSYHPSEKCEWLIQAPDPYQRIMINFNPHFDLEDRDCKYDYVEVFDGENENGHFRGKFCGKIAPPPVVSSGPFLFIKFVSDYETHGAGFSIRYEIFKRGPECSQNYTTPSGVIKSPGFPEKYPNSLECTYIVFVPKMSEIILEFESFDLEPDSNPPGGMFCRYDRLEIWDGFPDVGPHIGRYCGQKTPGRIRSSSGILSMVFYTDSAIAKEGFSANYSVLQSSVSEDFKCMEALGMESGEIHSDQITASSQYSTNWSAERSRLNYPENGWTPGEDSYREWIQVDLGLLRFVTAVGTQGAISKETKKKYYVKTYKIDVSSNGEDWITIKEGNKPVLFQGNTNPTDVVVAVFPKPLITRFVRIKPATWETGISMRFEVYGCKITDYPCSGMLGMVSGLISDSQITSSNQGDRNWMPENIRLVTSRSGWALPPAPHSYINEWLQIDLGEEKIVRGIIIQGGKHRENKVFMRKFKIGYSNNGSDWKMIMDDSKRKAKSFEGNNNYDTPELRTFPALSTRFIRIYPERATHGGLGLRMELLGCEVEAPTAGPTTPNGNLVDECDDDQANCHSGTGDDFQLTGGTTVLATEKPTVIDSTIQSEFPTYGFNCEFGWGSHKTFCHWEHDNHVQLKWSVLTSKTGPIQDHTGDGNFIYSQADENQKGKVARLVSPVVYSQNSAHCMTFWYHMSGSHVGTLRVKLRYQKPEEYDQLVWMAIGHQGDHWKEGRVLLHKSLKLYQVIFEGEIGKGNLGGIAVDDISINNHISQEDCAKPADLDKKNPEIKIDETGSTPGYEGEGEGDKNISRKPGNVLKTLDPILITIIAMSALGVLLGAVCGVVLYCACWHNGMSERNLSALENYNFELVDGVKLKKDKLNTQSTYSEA

[6] = biological target: Neuropilin-1 (Rattus norvegicus) (UniProt Q9QWJ9); experiment: Inhibition of biotinylated VEGF-A165 binding to rat NRP1/FC chimera at 10 uM after 40 mins by ELISA relative to control

Compound	inhibition [1]	inhibition [3]	other results
N=C(N)NCCC[C@H](NC(=O)[C@@H]1CCCN1C(=O)[C@@H]1CCCN1C(=O)[C@@H](N)CCCCNC(=O)C(N)CCCCN=C(N)N)C(=O)O (stereo partly drawn) (HELM PEPTIDE1{K.P.P.R}|PEPTIDE2{[N=C(N)NCCCCC(N)C(=O)[*:2]]}$PEPTIDE1,PEPTIDE2,1:R3-1:R2$$$V2.0)	4.7%	41.4%	IC50 (Neuropilin-1 [2]; read-out: IC50): 1000 nM
N=C(N)NCCCCCCC(=O)NCCCC[C@H](N)C(=O)N1CCC[C@H]1C(=O)N[C@@H](CCN)C(=O)N[C@@H](CCCNC(=N)N)C(=O)O (H-K(X2)P[Dab]R-OH)	25.5%	44.7%	–
N=C(N)NCCCC(N)C(=O)NCCCC[C@H](N)C(=O)N1CCC[C@H]1C(=O)N[C@@H](CCN)C(=O)N[C@@H](CCCNC(=N)N)C(=O)O (stereo partly drawn) (HELM PEPTIDE1{K.P.[Dab].R}|PEPTIDE2{[N=C(N)NCCCC(N)C(=O)[*:2]]}$PEPTIDE1,PEPTIDE2,1:R3-1:R2$$$V2.0)	8%	39.9%	–
C[C@H](NC(=O)[C@H](CN)NC(=O)[C@@H](N)CCCCNC(=O)C(N)CCCCN=C(N)N)C(=O)N[C@@H](CCCNC(=N)N)C(=O)O (stereo partly drawn) (HELM PEPTIDE1{K.[NC[C@H](N[*:1])C(=O)[*:2]].A.R}|PEPTIDE2{[N=C(N)NCCCCC(N)C(=O)[*:2]]}$PEPTIDE1,PEPTIDE2,1:R3-1:R2$$$V2.0)	14.1%	25%	–
N=C(N)NCCC[C@H](NC(=O)[C@H](CCCN)NC(=O)[C@@H]1CCCN1C(=O)[C@@H](N)CCCCNC(=O)C(N)CCCCN=C(N)N)C(=O)O (stereo partly drawn) (HELM PEPTIDE1{K.P.[Orn].R}|PEPTIDE2{[N=C(N)NCCCCC(N)C(=O)[*:2]]}$PEPTIDE1,PEPTIDE2,1:R3-1:R2$$$V2.0)	11.1%	17.8%	–
N=C(N)NCCC[C@H](NC(=O)[C@H](CCN)NC(=O)[C@@H]1CCCN1C(=O)[C@@H](N)CCCCNC(=O)C(N)CCNC(=N)N)C(=O)O (stereo partly drawn) (HELM PEPTIDE1{K.P.[Dab].R}|PEPTIDE2{[N=C(N)NCCC(N)C(=O)[*:2]]}$PEPTIDE1,PEPTIDE2,1:R3-1:R2$$$V2.0)	5.7%	28%	–
N=C(N)NCCCC(N)C(=O)NCCC[C@H](N)C(=O)N1CCC[C@H]1C(=O)N[C@@H](CCN)C(=O)N[C@@H](CCCNC(=N)N)C(=O)O (stereo partly drawn) (HELM PEPTIDE1{[Orn].P.[Dab].R}|PEPTIDE2{[N=C(N)NCCCC(N)C(=O)[*:2]]}$PEPTIDE1,PEPTIDE2,1:R3-1:R2$$$V2.0)	2.8%	40.3%	–
C[C@H](NC(=O)[C@H](CCN)NC(=O)[C@@H](N)CCCCNC(=O)C(N)CCCCN=C(N)N)C(=O)N[C@@H](CCCNC(=N)N)C(=O)O (stereo partly drawn) (HELM PEPTIDE1{K.[Dab].A.R}|PEPTIDE2{[N=C(N)NCCCCC(N)C(=O)[*:2]]}$PEPTIDE1,PEPTIDE2,1:R3-1:R2$$$V2.0)	16.1%	47.3%	–
N=C(N)NCCC[C@H](NC(=O)[C@H](CCN)NC(=O)[C@@H]1CCCN1C(=O)[C@@H](N)CCCCNC(=O)C(N)CCCCN=C(N)N)C(=O)O (stereo partly drawn) (HELM PEPTIDE1{K.P.[Dab].R}|PEPTIDE2{[N=C(N)NCCCCC(N)C(=O)[*:2]]}$PEPTIDE1,PEPTIDE2,1:R3-1:R2$$$V2.0)	62.2%	82.6%	half-life at 900 µM [4]: 0.733 h; IC50 (Neuropilin-1 [2]; read-out: IC50): 200 nM; IC50 (Neuropilin-1 [2]; read-out: pIC50 (converted)): 240 nM
N=C(N)NCCCCCCCCCCC(=O)NCCCC[C@H](N)C(=O)N1CCC[C@H]1C(=O)N[C@@H](CCN)C(=O)N[C@@H](CCCNC(=N)N)C(=O)O (H-K(X1)P[Dab]R-OH)	12.1%	35.5%	–
N=C(N)NCCC[C@H](NC(=O)[C@@H]1CCCN1C(=O)[C@H](CCCN)NC(=O)[C@@H](N)CCCCNC(=O)C(N)CCCCN=C(N)N)C(=O)O (stereo partly drawn) (HELM PEPTIDE1{K.[Orn].P.R}|PEPTIDE2{[N=C(N)NCCCCC(N)C(=O)[*:2]]}$PEPTIDE1,PEPTIDE2,1:R3-1:R2$$$V2.0)	10.4%	38%	–
N=C(N)NCCC[C@H](NC(=O)[C@@H]1CCCN1C(=O)C(CCN)NC(=O)[C@@H](N)CCCCN=C(N)N)C(=O)O (stereo partly drawn) (HELM PEPTIDE1{[N=C(N)NCCCC[C@H](N)C(=O)[*:2]].[NCCC(N[*:1])C(=O)[*:2]].P.R}$$$$V2.0)	–	–	IC50 (Neuropilin-1 [5]): 800 nM
N=C(N)NCCC[C@H](NC(=O)[C@H](CCN)NC(=O)[C@@H]1CCCN1C(=O)[C@@H](N)CCNC(=O)C(N)CCCCN=C(N)N)C(=O)O (stereo partly drawn) (HELM PEPTIDE1{[Dab].P.[Dab].R}|PEPTIDE2{[N=C(N)NCCCCC(N)C(=O)[*:2]]}$PEPTIDE1,PEPTIDE2,1:R3-1:R2$$$V2.0)	5.7%	41.4%	–
N=C(N)NCCC[C@H](NC(=O)[C@@H]1CCCN1C(=O)[C@@H](N)CCCCNC(=O)C(N)CCCCN=C(N)N)C(=O)O (stereo partly drawn) (HELM PEPTIDE1{K.P.R}|PEPTIDE2{[N=C(N)NCCCCC(N)C(=O)[*:2]]}$PEPTIDE1,PEPTIDE2,1:R3-1:R2$$$V2.0)	–	–	inhibition [6]: 47.8%
N=C(N)NCCC[C@H](NC(=O)[C@@H]1CCCN1C(=O)[C@H](CCCCN)NC(=O)[C@@H](N)CCCCNC(=O)C(N)CCCCN=C(N)N)C(=O)O (stereo partly drawn) (HELM PEPTIDE1{K.K.P.R}|PEPTIDE2{[N=C(N)NCCCCC(N)C(=O)[*:2]]}$PEPTIDE1,PEPTIDE2,1:R3-1:R2$$$V2.0)	–	22.1%	–
N=C(N)NCCC[C@H](NC(=O)[C@@H]1CCCN1C(=O)[C@H](CN)NC(=O)[C@@H](N)CCCCNC(=O)C(N)CCCCN=C(N)N)C(=O)O (stereo partly drawn) (HELM PEPTIDE1{K.[NC[C@H](N[*:1])C(=O)[*:2]].P.R}|PEPTIDE2{[N=C(N)NCCCCC(N)C(=O)[*:2]]}$PEPTIDE1,PEPTIDE2,1:R3-1:R2$$$V2.0)	59.4%	82%	half-life at 900 µM [4]: 34 h; IC50 (Neuropilin-1 [2]; read-out: IC50): 200 nM
N=C(N)NCCC[C@H](NC(=O)[C@H](CCCCN)NC(=O)[C@@H]1CCCN1C(=O)[C@@H](N)CCCCNC(=O)C(N)CCCCN=C(N)N)C(=O)O (stereo partly drawn) (HELM PEPTIDE1{K.P.K.R}|PEPTIDE2{[N=C(N)NCCCCC(N)C(=O)[*:2]]}$PEPTIDE1,PEPTIDE2,1:R3-1:R2$$$V2.0)	20.6%	22.4%	–
C[C@H](NC(=O)[C@@H]1CCCN1C(=O)[C@@H](N)CCCCNC(=O)C(N)CCCCN=C(N)N)C(=O)N[C@@H](CCCNC(=N)N)C(=O)O (stereo partly drawn) (HELM PEPTIDE1{K.P.A.R}|PEPTIDE2{[N=C(N)NCCCCC(N)C(=O)[*:2]]}$PEPTIDE1,PEPTIDE2,1:R3-1:R2$$$V2.0)	54.2%	77.5%	half-life at 900 µM [4]: 0.65 h; IC50 (Neuropilin-1 [2]; read-out: IC50): 300 nM
N=C(N)NCCC[C@H](NC(=O)[C@@H]1CCCN1C(=O)[C@H](CCN)NC(=O)[C@@H](N)CCCCNC(=O)C(N)CCCCN=C(N)N)C(=O)O (stereo partly drawn) (HELM PEPTIDE1{K.[Dab].P.R}|PEPTIDE2{[N=C(N)NCCCCC(N)C(=O)[*:2]]}$PEPTIDE1,PEPTIDE2,1:R3-1:R2$$$V2.0)	59.6%	83.7%	half-life at 900 µM [4]: 41 h; IC50 (Neuropilin-1 [2]; read-out: IC50): 200 nM
N=C(N)NCCC[C@H](NC(=O)[C@@H]1CCCN1C(=O)[C@@H]1CCCN1C(=O)[C@@H](N)CCCCN)C(=O)O (H-KPPR-OH)	10.1%	15.4%	IC50 (Neuropilin-1 [5]): 4600 nM
N=C(N)NCCC[C@H](NC(=O)[C@H](CCN)NC(=O)[C@@H]1CCCN1C(=O)[C@@H](N)CCCNC(=O)C(N)CCCCN=C(N)N)C(=O)O (stereo partly drawn) (HELM PEPTIDE1{[Orn].P.[Dab].R}|PEPTIDE2{[N=C(N)NCCCCC(N)C(=O)[*:2]]}$PEPTIDE1,PEPTIDE2,1:R3-1:R2$$$V2.0)	17%	36.3%	–
C[C@H](NC(=O)[C@@H](N)CCCCNC(=O)C(N)CCCCN=C(N)N)C(=O)N1CCC[C@H]1C(=O)N[C@@H](CCCNC(=N)N)C(=O)O (stereo partly drawn) (HELM PEPTIDE1{K.A.P.R}|PEPTIDE2{[N=C(N)NCCCCC(N)C(=O)[*:2]]}$PEPTIDE1,PEPTIDE2,1:R3-1:R2$$$V2.0)	3.9%	20%	–
C[C@H](NC(=O)[C@H](CCCN)NC(=O)[C@@H](N)CCCCNC(=O)C(N)CCCCN=C(N)N)C(=O)N[C@@H](CCCNC(=N)N)C(=O)O (stereo partly drawn) (HELM PEPTIDE1{K.[Orn].A.R}|PEPTIDE2{[N=C(N)NCCCCC(N)C(=O)[*:2]]}$PEPTIDE1,PEPTIDE2,1:R3-1:R2$$$V2.0)	–	15.6%	–
N=C(N)NCCC[C@H](NC(=O)[C@H](CN)NC(=O)[C@@H]1CCCN1C(=O)[C@@H](N)CCCCNC(=O)C(N)CCCCN=C(N)N)C(=O)O (stereo partly drawn) (HELM PEPTIDE1{K.P.[NC[C@H](N[*:1])C(=O)[*:2]].R}|PEPTIDE2{[N=C(N)NCCCCC(N)C(=O)[*:2]]}$PEPTIDE1,PEPTIDE2,1:R3-1:R2$$$V2.0)	18.4%	23.6%	–
C[C@H](NC(=O)[C@H](CCCCN)NC(=O)[C@@H](N)CCCCNC(=O)C(N)CCCCN=C(N)N)C(=O)N[C@@H](CCCNC(=N)N)C(=O)O (stereo partly drawn) (HELM PEPTIDE1{K.K.A.R}|PEPTIDE2{[N=C(N)NCCCCC(N)C(=O)[*:2]]}$PEPTIDE1,PEPTIDE2,1:R3-1:R2$$$V2.0)	–	22.2%	–
C[C@H](NC(=O)[C@H](C)NC(=O)[C@@H](N)CCCCNC(=O)C(N)CCCCN=C(N)N)C(=O)N[C@@H](CCCNC(=N)N)C(=O)O (stereo partly drawn) (HELM PEPTIDE1{K.A.A.R}|PEPTIDE2{[N=C(N)NCCCCC(N)C(=O)[*:2]]}$PEPTIDE1,PEPTIDE2,1:R3-1:R2$$$V2.0)	16.9%	48.9%	–
